Data taken from patent publication US5187082A, “Process for producing A83850 antibiotics” (Eli Lilly and Company, priority 1990, dated 1993).

System: Culture A83850 (Amycolatopsis albus NRRL 18532)
Experiment: Resistance of culture A83850 to antibiotics, sensitivity discs on seeded ISP No. 2 agar plates
Type: cell-based
Conditions: disc content printed per antibiotic
Procedure: Resistance to antibiotics was measured by padding antibiotic sensitivity discs onto the surface of seeded ISP No. 2 agar plates.

Compound | Resistance or inhibition of culture A83850 by antibiotic disc
CO[C@H]1C[C@H](O[C@H]2[C@H](C)[C@@H](O[C@@H]3O[C@H](C)C[C@H](N(C)C)[C@H]3O)[C@@H](C)C[C@@]3(CO3)C(=O)[C@H](C)[C@@H](O)[C@@H](C)[C@@H](C)OC(=O)[C@@H]2C)O[C@@H](C)[C@@H]1O [oleandomycin] | resistant
CC1(C)S[C@@H]2[C@H](NC(=O)Cc3ccccc3)C(=O)N2[C@H]1C(=O)O [penicillin] | inhibited
CO[C@H]1/C=C/O[C@@]2(C)Oc3c(C)c(O)c4c(O)c(c(/C=N/N5CCN(C)CC5)c(O)c4c3C2=O)NC(=O)/C(C)=C\C=C\[C@H](C)[C@H](O)[C@@H](C)[C@@H](O)[C@@H](C)[C@H](OC(C)=O)[C@@H]1C [rifampin] | resistant
[H]/N=C(/N)N[C@H]1[C@H](O)[C@@H](O)[C@H](O[C@@H]2O[C@@H](C)[C@](O)(C=O)[C@H]2O[C@@H]2O[C@@H](CO)[C@H](O)[C@@H](O)[C@@H]2NC)[C@@H](N/C(N)=N\[H])[C@@H]1O [streptomycin] | inhibited
CN(C)[C@@H]1C(O)=C(C(N)=O)C(=O)[C@@]2(O)C(O)=C3C(=O)c4c(O)cccc4[C@@](C)(O)[C@H]3C[C@@H]12 [tetracycline] | resistant
NC[C@H]1O[C@H](O[C@H]2[C@H](O)[C@@H](O[C@H]3O[C@H](CO)[C@@H](O)[C@H](N)[C@H]3O)[C@H](N)C[C@@H]2N)[C@H](N)C[C@@H]1O [tobramycin] | inhibited
gentamicin | inhibited
neomycin | resistant
